Experimental findings from patent US20240183842A1, “Supercharged Biovesicles and Methods of Use Thereof” (The General Hospital Corporation, priority 2021, published 2024) are described below.

For one assay, the system named is HEK293T cells. Briefly: Inhibitor pretreatment before Bodipy TR-scEV uptake, flow cytometry. The assay is classed as cell-based, human. The conditions noted are these: for Bodipy TR fluorescence in recipient cells (scEV uptake) compared to sham / +scProtein fluorescence levels compared to sham: 1 h pretreatment, 24 h Bodipy TR-scEVs, CHL 10 μM, Bort 5 μM; for Bodipy TR fluorescence in recipient cells (scEV uptake) compared to sham: ConA 200 nM, Baf 200 nM. As for the experimental part: For inhibitor treatment before scEV uptake, HEK293T cells (50,000 cells per well) were seeded in 24-well culture plates (Falcon) for 24 h in DMEM with serum. The cells were then pre-incubated with the inhibitors in Optimem without serum. […] The labelled EVs (10^7-10^8 particles) were added each well for 24 h in the presence of the indicated inhibitors. Following incubation, cells were trypsinized and analyzed based on scProtein and Bodipy TR fluorescence on a Beckman SORP 5 Laser BD Fortessa Flow Cytometer in the MGH core facility.
FLOW CYTOMETRY. Flow cytometric analysis was performed on the Beckman SORP 5 Laser BD Fortessa Flow Cytometer in the MGH core facility. Forward and side scatter signals were used to distinguish live cells from polystyrene beads. Proper gating was performed to identify positive fluorescent signals compared to non-stained or single stained controls.

The target of assay [1] is Flag-Tag affinity beads (antibody based magnetic beads). Briefly: elution of bead-bound NoMi-EVs with free Flag peptide, nanoluciferase bioluminescence read-out.

For the molecule `CO/C1=C\C(C)=C\[C@@H](C)[C@@H](O)[C@@H](C)C/C(C)=C/C=C/[C@H](OC)[C@@H]([C@@H](C)[C@@H](O)[C@H](C)[C@@]2(O)C[C@@H](O)[C@H](C)[C@@H](C(C)C)O2)OC1=O` [Bafilomycin A1], the “Bodipy TR fluorescence in recipient cells (scEV uptake) compared to sham” value (“Bodipy TR fluorescence … compared to sham” for short) in the assay with HEK293T cells was “No significant decrease”.
Regarding `CC(C)C[C@H](NC(=O)[C@H](Cc1ccccc1)NC(=O)c1cnccn1)B(O)O` [Bortezomib], in the assay on HEK293T cells, the “+scProtein fluorescence levels compared to sham” value was “increase” and the “Bodipy TR fluorescence … compared to sham” value was “increased scEV uptake”. Further, the “+scProtein fluorescence in combination with Baf and ConA” value in the assay on HEK293T cells (Bort combined with Baf or ConA) is listed as “increased”.
With `CCN(CC)CCCC(C)Nc1ccnc2cc(Cl)ccc12` (centres unmarked) [Chloroquine], in the assay with HEK293T cells, the “+scProtein fluorescence levels compared to sham” value was “increase” and the “Bodipy TR fluorescence … compared to sham” value is “significantly increase”.
For the molecule `C/C=C/[C@H]1O[C@@](O)([C@@H](C)[C@H](O)[C@H](C)[C@H]2OC(=O)/C(OC)=C/C(C)=C/[C@@H](C)[C@@H](O)[C@@H](CC)[C@@H](O)[C@H](C)C/C(C)=C/C=C/[C@@H]2OC)C[C@@H](O[C@H]2C[C@@H](O)[C@H](OC(N)=O)[C@@H](C)O2)[C@@H]1C` [concanamycin A], the “Bodipy TR fluorescence … compared to sham” value with HEK293T cells is on record as “No significant decrease”.
On to DYDKDDDK [Flag-Tag peptide], for which, in assay [1], the percent of EVs recovered from the beads by peptide elution was determined as 75%.
